Results taken from ChEMBL document CHEMBL1201862, “PubChem BioAssay data set” (2004).
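Where inhibition never reached the appropriate level, the endpoint shown equals the highest concentration tested. Otherwise, values were interpolated linearly from a five-concentration, 48-hour dose response in 96-well plates. The concentration for 50% growth inhibition is given as GI50.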 Active and inactive are the calls of the source. Cut-off read from the data, not from the text of the source: active = GI50 up to about 1.1 µM and inactive = higher.

Key:
Assay in all cases: NCI tumour cell line growth inhibition, 48 h
ACHN = system: ACHN
COLO 205 = system: COLO 205
EKVX = system: EKVX
HCC 2998 = system: HCC 2998
HCT-116 = system: HCT-116
HCT-15 = system: HCT-15
HL-60 = system: HL-60
HOP-62 = system: HOP-62
IGROV-1 = system: IGROV-1
K562 = system: K562
KM12 = system: KM12
M14 = system: M14
MCF7 = system: MCF7
MDA-MB-231 = system: MDA-MB-231
MDA-MB-435 = system: MDA-MB-435
MDA-N = system: MDA-N
MOLT-4 = system: MOLT-4
NCI-H522 = system: NCI-H522
NCI/ADR-RES = system: NCI/ADR-RES
OVCAR-5 = system: OVCAR-5
OVCAR-8 = system: OVCAR-8
PC-3 = system: PC-3
RPMI-8226 = system: RPMI-8226
SF-268 = system: SF-268
SF-295 = system: SF-295
SF-539 = system: SF-539
SK-MEL-28 = system: SK-MEL-28
SK-MEL-5 = system: SK-MEL-5
SK-OV-3 = system: SK-OV-3
SN12C = system: SN12C
SNB-19 = system: SNB-19
SNB-75 = system: SNB-75
SR = system: SR
SW-620 = system: SW-620
T47D = system: T47D
TK-10 = system: TK-10
U-251 = system: U-251
UACC-257 = system: UACC-257
UO-31 = system: UO-31
786-0 = system: 786-0
A498 = system: A498
A549 = system: A549
CAKI-1 = system: CAKI-1
CCRF-CEM = system: CCRF-CEM
DU-145 = system: DU-145
HOP-92 = system: HOP-92
HT-29 = system: HT-29
Hs-578T = system: Hs-578T
LOX IMVI = system: LOX IMVI
Malme-3M = system: Malme-3M
NCI-H226 = system: NCI-H226
NCI-H23 = system: NCI-H23
NCI-H460 = system: NCI-H460
OVCAR-4 = system: OVCAR-4
RXF 393 = system: RXF 393
SK-MEL-2 = system: SK-MEL-2
UACC-62 = system: UACC-62

`O=c1c2ccccc2nc2n1CCc1c-2[nH]c2cc3c(cc12)OCO3` was tested, and the GI50 (ACHN) was 3.98 µM (inactive), the GI50 (COLO 205) was > 25 µM (inactive) and the GI50 (EKVX) was > 25 µM (inactive). For the same molecule, the GI50 (HCC 2998) was > 25 µM (inactive), the GI50 (HCT-116) was 3.32 µM (inactive) and the GI50 (HCT-15) was 8.65 µM. For the same molecule, the GI50 (HL-60) was > 25 µM (inactive), the GI50 (HOP-62) was 9.42 µM (inactive) and the GI50 (IGROV-1) was > 25 µM (inactive). The GI50 (K562) was > 25 µM (inactive), the GI50 (KM12) was 15.7 µM (inactive) and the GI50 (M14) was > 25 µM (inactive). For the same molecule, the GI50 (MCF7) was > 25 µM (inactive), the GI50 (MDA-MB-231) was 9.71 µM (inactive) and the GI50 (MDA-MB-435) was 13.6 µM (inactive). The GI50 (MDA-N) was 17.6 µM (inactive), the GI50 (MOLT-4) was > 25 µM (inactive) and the GI50 (NCI-H522) was 5.4 µM (inactive). For the same molecule, the GI50 (NCI/ADR-RES) was > 25 µM (inactive), the GI50 (OVCAR-5) was > 25 µM (inactive) and the GI50 (OVCAR-8) was 5.74 µM (inactive). The GI50 (PC-3) was > 25 µM (inactive), the GI50 (RPMI-8226) was > 25 µM (inactive) and the GI50 (SF-268) was 5.41 µM (inactive). For the same molecule, the GI50 (SF-295) was 5.55 µM (inactive), the GI50 (SF-539) was 5.77 µM (inactive) and the GI50 (SK-MEL-28) was > 25 µM (inactive). For the same molecule, the GI50 (SK-MEL-5) was 13.7 µM (inactive), the GI50 (SK-OV-3) was 6.95 µM (inactive) and the GI50 (SN12C) was > 25 µM (inactive). The GI50 (SNB-19) was 5.11 µM (inactive), the GI50 (SNB-75) was 6.61 µM (inactive) and the GI50 (SR) was > 25 µM (inactive). The GI50 (SW-620) was > 25 µM (inactive), the GI50 (T47D) was > 25 µM (inactive) and the GI50 (TK-10) was > 25 µM (inactive). For the same molecule, the GI50 (U-251) was 7.28 µM (inactive), the GI50 (UACC-257) was > 25 µM (inactive) and the GI50 (UO-31) was > 25 µM (inactive).
With `O=C1NC(=S)N(c2ccccc2)C1=O` the GI50 (786-0) was > 100 µM (inactive), the GI50 (A498) was > 100 µM (inactive) and the GI50 (A549) was > 100 µM (inactive). The GI50 (ACHN) was > 100 µM (inactive), the GI50 (CAKI-1) was > 100 µM (inactive) and the GI50 (CCRF-CEM) was > 100 µM (inactive). The GI50 (COLO 205) was > 100 µM (inactive), the GI50 (DU-145) was > 100 µM (inactive) and the GI50 (EKVX) was > 100 µM (inactive). The GI50 (HCC 2998) was > 100 µM (inactive), the GI50 (HCT-116) was > 100 µM (inactive) and the GI50 (HCT-15) was greater than 100 µM. The GI50 (HL-60) was > 100 µM (inactive), the GI50 (HOP-62) was > 100 µM (inactive) and the GI50 (HOP-92) was > 100 µM (inactive). The GI50 (HT-29) was > 100 µM (inactive), the GI50 (Hs-578T) was > 100 µM (inactive) and the GI50 (IGROV-1) was > 100 µM (inactive). The GI50 (K562) was > 100 µM (inactive), the GI50 (KM12) was > 100 µM (inactive) and the GI50 (LOX IMVI) was > 100 µM (inactive). The GI50 (MDA-MB-231) was > 100 µM (inactive), the GI50 (MDA-MB-435) was > 100 µM (inactive) and the GI50 (MOLT-4) was > 100 µM (inactive). For the same molecule, the GI50 (Malme-3M) was > 100 µM (inactive), the GI50 (NCI-H226) was > 100 µM (inactive) and the GI50 (NCI-H23) was > 100 µM (inactive). For the same molecule, the GI50 (NCI-H460) was > 100 µM (inactive), the GI50 (NCI-H522) was 3.79 µM (inactive) and the GI50 (NCI/ADR-RES) was > 100 µM (inactive). The GI50 (OVCAR-4) was > 100 µM (inactive), the GI50 (OVCAR-5) was > 100 µM (inactive) and the GI50 (OVCAR-8) was > 100 µM (inactive). For the same molecule, the GI50 (PC-3) was > 100 µM (inactive), the GI50 (RPMI-8226) was > 100 µM (inactive) and the GI50 (RXF 393) was > 100 µM (inactive). The GI50 (SF-268) was > 100 µM (inactive), the GI50 (SF-295) was > 100 µM (inactive) and the GI50 (SF-539) was > 100 µM (inactive). For the same molecule, the GI50 (SK-MEL-28) was > 100 µM (inactive), the GI50 (SK-MEL-2) was > 100 µM (inactive) and the GI50 (SK-MEL-5) was > 100 µM (inactive). The GI50 (SK-OV-3) was > 100 µM (inactive), the GI50 (SN12C) was > 100 µM (inactive) and the GI50 (SNB-19) was > 100 µM (inactive). For the same molecule, the GI50 (SNB-75) was > 100 µM (inactive), the GI50 (SR) was > 100 µM (inactive) and the GI50 (SW-620) was > 100 µM (inactive). The GI50 (T47D) was > 100 µM (inactive), the GI50 (TK-10) was > 100 µM (inactive) and the GI50 (U-251) was > 100 µM (inactive). The GI50 (UACC-257) was > 100 µM (inactive), the GI50 (UACC-62) was > 100 µM (inactive) and the GI50 (UO-31) was > 100 µM (inactive).
